Like-named read-outs stand apart in the source and are kept apart here.
How the values were obtained:
[1] = target: EGFR mutant L858R Ba/F3 cells (Homo sapiens, UniProt P00533, L858R, cells depend on it); test: Ba/F3 cell proliferation (Cell Titer Glo), EGFR L858R; type: cell-based, murine; conditions: 72 hours
Description: (§1) The EGFR mutant L858R Ba/F3 cells have been previously described (Zhou, W., et al. Nature 462, 2009, 1070-1074). The EGFR C797S and C775S mutations were introduced via site directed mutagenesis using the Quick Change Site-Directed Mutagenesis kit into a vector containing EGFR L858R mutation (Stratagene; La Jolla, CA) according to the manufacturer's instructions. All constructs were confirmed by DNA sequencing. The constructs were then shuttled into the retroviral vector JP1540 by either using the Cre-recombination system (Agilent Technologies, Santa Clara, CA) or the In-fusion HD Cloning kit (Takara Bio USA, Inc.; Mountain view, CA). Ba/F3 cells were then infected with retrovirus per standard protocols, as described previously (Zhou, et al, Nature 2009). Stable clones were obtained by selection in puromycin (2 μg/ml). All BaF/3 mutant cells were maintained in RPMI 1640 (Cellgro; Mediatech Inc., Herndon, CA) supplemented with 10% FBS, 100 units/mL penicillin, 100 units/mL streptomycin.
(§2) Growth and inhibition of growth was assessed by the Cell Titer Glo assay (Promega, Madison, WI) and was performed according to the manufacturer's instructions. The Cell Titer Glo assay is a luminescence-based method used to determine the number of viable cells based on quantitation of the ATP present, which is directly proportional to the amount of metabolically active cells present. Ba/F3 cells of different EGFR genotypes were exposed to compounds for 72 hours and the number of cells used per experiment was determined empirically as has been previously established (Zhou, et al., Nature 2009). All experimental points were set up in triplicates in 384-well plates. […] The curves were fitted using a non-linear regression model with a sigmoidal dose response.
(§3) Ba/F3 cells assay data are provided below in Table 5 and Table 6. For inhibitory activity against EGFR mutants, the following designations are used: <0.1 μM=A, 0.1 μM˜0.5 μM=B, 0.5 μM˜2.5 μM=C, ≥2.5 μM=D

[2] = target: EGFR L858R/C797S Ba/F3 cells (Homo sapiens, UniProt P00533, C797S/L858R, cells depend on it); test: Ba/F3 cell proliferation (Cell Titer Glo), EGFR L858R/C797S; type: cell-based, murine; conditions: 72 hours
Chain of EGFR L858R/C797S Ba/F3 cells (P00533 whole entry C797S/L858R): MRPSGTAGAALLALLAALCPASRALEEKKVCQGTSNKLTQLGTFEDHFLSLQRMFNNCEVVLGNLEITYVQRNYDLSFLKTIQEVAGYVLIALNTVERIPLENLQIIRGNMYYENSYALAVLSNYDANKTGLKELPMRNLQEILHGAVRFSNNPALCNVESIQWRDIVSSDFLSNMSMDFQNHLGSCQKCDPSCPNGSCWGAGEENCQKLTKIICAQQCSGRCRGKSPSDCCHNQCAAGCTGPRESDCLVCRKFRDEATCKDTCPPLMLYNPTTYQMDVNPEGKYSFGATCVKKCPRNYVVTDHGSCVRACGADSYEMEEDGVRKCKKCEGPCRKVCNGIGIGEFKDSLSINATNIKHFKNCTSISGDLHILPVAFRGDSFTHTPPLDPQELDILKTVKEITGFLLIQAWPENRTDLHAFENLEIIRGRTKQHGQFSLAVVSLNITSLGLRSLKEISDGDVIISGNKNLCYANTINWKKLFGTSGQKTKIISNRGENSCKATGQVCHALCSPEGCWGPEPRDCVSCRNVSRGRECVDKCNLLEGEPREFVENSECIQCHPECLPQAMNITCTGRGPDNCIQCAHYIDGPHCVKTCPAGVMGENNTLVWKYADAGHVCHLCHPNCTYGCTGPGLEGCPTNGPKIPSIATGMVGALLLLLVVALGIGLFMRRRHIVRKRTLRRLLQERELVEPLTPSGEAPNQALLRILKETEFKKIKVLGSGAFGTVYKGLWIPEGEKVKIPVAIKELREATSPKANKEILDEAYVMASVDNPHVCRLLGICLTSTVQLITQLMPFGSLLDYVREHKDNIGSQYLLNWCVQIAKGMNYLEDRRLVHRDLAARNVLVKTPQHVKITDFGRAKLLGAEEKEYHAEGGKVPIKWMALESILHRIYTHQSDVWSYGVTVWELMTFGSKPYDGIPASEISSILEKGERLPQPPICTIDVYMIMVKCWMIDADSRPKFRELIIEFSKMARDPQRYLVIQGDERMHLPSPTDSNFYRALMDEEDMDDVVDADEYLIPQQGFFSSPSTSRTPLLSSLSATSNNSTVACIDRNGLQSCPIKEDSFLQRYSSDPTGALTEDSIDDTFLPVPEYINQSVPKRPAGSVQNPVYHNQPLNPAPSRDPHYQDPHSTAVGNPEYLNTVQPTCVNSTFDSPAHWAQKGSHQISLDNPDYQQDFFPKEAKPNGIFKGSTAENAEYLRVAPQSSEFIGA
Description: as §1, §2, §3

Chain of EGFR mutant L858R Ba/F3 cells (P00533 whole entry L858R, the tested form may be a part): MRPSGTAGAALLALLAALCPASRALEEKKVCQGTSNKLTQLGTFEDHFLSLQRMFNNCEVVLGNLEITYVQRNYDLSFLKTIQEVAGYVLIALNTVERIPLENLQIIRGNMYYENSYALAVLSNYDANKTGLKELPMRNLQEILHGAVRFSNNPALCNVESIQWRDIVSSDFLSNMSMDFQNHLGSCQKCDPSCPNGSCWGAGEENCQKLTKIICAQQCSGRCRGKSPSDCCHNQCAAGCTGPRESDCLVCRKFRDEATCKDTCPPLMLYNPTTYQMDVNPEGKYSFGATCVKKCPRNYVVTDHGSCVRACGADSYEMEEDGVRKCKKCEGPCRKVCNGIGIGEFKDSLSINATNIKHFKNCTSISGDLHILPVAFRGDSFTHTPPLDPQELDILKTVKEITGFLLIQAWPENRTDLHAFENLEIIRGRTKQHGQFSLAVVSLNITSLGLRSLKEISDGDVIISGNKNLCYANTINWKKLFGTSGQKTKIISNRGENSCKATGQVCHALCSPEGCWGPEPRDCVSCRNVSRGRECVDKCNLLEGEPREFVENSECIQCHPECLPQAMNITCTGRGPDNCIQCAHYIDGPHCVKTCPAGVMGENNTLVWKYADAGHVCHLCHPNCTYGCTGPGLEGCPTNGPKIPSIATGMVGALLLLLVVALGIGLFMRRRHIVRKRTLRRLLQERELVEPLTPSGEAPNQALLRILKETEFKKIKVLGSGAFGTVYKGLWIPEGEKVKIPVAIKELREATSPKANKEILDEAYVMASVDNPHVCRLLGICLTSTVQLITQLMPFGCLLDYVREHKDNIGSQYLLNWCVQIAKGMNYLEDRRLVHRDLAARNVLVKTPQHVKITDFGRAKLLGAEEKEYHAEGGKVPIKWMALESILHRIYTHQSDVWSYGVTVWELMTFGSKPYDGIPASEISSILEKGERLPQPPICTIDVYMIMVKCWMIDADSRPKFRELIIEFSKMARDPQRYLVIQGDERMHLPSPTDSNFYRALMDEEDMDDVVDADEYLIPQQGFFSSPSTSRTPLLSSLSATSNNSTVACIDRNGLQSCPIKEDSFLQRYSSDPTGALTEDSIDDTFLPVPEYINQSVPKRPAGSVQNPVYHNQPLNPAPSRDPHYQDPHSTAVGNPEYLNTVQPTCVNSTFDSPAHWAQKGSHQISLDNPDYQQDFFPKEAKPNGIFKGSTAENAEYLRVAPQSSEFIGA

GI50 ([1]; Table 6, read-out: L858R BaF3) [nM]	GI50 ([2]; Table 6) [nM]	GI50 ([1]; Table 5, read-out: L858R BaF3) [nM]	GI50 ([2]; Table 5) [nM]	Compound
≥ 2500	≥ 2500	–	–	CN1C(=O)N(C2CN(C#N)c3ccccc32)Cc2cnc(Nc3cnn(CCO)c3)nc21 (centres unmarked) [Compound 106, 3-[7-[[1-(2-hydroxyethyl)pyrazol-4-yl]amino]-1-methyl-2-oxo-4H-pyrimido[4,5-d]pyrimidin-S-yl]indoline-1-carbonitrile]
< 100	< 100	–	–	C=CC(=O)N1CCC(N2Cc3cnc(Nc4cnn(C)c4)nc3N(C)C2=O)c2ccccc21 (centres unmarked) [Compound 061]
≥ 2500	≥ 2500	–	–	CN1C(=O)N([C@H]2CCN(C#N)c3ccccc32)Cc2cnc(Nc3cnn(CCO)c3)nc21 [Compound 103]
< 100	< 100	–	–	C=C(F)C(=O)N1CC[C@H](N2Cc3cnc(Nc4cnn(CCO)c4)nc3N(CC(F)F)C2=O)c2ccccc21 [Compound 110, 1-(2,2-difluoroethyl)-S-[(4S)-1-(2-fluoroprop-2-enoyl)-3,4-dihydro-2H-quinolin-4-yl]-7-[[1-(2-hydroxyethyl)pyrazol-4-yl]amino]-4H-pyrimido[4,5-d]pyrimidin-2-one]
100 to 500	500 to 2500	–	–	C/C=C(\F)C(=O)N1CC[C@H](N2Cc3cnc(Nc4ccc(N5CCN(C)CC5)cc4)nc3N(C)C2=O)c2ccccc21 [Compound 097]
< 100	< 100	–	–	C=C(F)C(=O)N1CC[C@H](N2Cc3cnc(Nc4ccc5c(c4)CCN(C)C5)nc3N(c3cnn(C)c3)C2=O)c2ccccc21 [Compound 109]
< 100	< 100	–	–	C=CC(=O)N1CCC(N2Cc3cnc(Nc4ccc(CN5CCN(C)CC5)c(Cl)c4)nc3N(C)C2=O)c2ccccc21 (centres unmarked) [Compound 088]
< 100	< 100	–	–	C=CC(=O)N1CCC(N2Cc3cnc(Nc4ccc(N5CCN(C)CC5)cc4)nc3N(C)C2=O)c2cccc(OC)c21 (centres unmarked) [Compound 100, 3-(8-methoxy-1-prop-2-enoyl-3,4-dihydro-2H-quinolin-4-yl)-1-methyl-7-[4-(4-methylpiperazin-1-yl)anilino]-4H-pyrimido[4,5-d]pyrimidin-2-one]
≥ 2500	≥ 2500	–	–	C=CC(=O)N1CCC(N2Cc3cnc(Nc4ccc(N5CCN(C)CC5)cc4)nc3N(C)C2=O)CC1 [Compound 054]
≥ 2500	≥ 2500	–	–	C=CC(=O)N1CCC(N2Cc3cnc(Nc4ccc(S(=O)(=O)NCCO)cc4)nc3N(C)C2=O)c2ccccc21 (centres unmarked) [Compound 084]
< 100	< 100	–	–	C=CC(=O)N1CCC(N2Cc3cnc(Nc4cc(F)c(N5CCN(C)CC5)c(F)c4)nc3N(C)C2=O)c2ccccc21 (centres unmarked) [Compound 072]
< 100	< 100	–	–	C=CC(=O)N1CCC(N2Cc3cnc(Nc4ccc(CN5CCN(C)CC5)cn4)nc3N(C)C2=O)c2ccccc21 (centres unmarked) [Compound 070]
≥ 2500	≥ 2500	–	–	C=CC(=O)N1CC2CC1CC2N1Cc2cnc(Nc3ccc(N4CCN(C)CC4)cc3)nc2N(C)C1=O (stereo not drawn) [Compound 059, 1-methyl-7-[4-(4-methylpiperazin-1-yl)anilino]-S-(2-prop-2-enoyl-2-azabicyclo[2.2.1]heptan-5-yl)-4H-pyrimido[4,5-d]pyrimidin-2-one]
≥ 2500	≥ 2500	–	–	C=CC(=O)N1CCC(C)(N2Cc3cnc(Nc4cnn(CCO)c4)nc3N(C)C2=O)c2ccccc21 (stereo not drawn) [Compound 112, 7-[[1-(2-hydroxyethyl)pyrazol-4-yl]amino]-1-methyl-S-(4-methyl-1-prop-2-enoyl-2,3-dihydroquinolin-4-yl)-4H-pyrimido[4,5-d]pyrimidin-2-one]
< 100	< 100	–	–	C=CC(=O)N1CCC(N2Cc3cnc(Nc4ccc(C5=CCN(C)CC5)cc4)nc3N(C)C2=O)c2ccccc21 (centres unmarked) [Compound 067]
< 100	< 100	–	–	C=CC(=O)N1CCC(N2Cc3cnc(Nc4ccc(N(C)CCN(C)C)cc4)nc3N(C)C2=O)c2ccccc21 (centres unmarked) [Compound 075]
500 to 2500	500 to 2500	–	–	C=C(C)C(=O)N1CC[C@H](N2Cc3cnc(Nc4ccc(N5CCN(C)CC5)cc4)nc3N(C)C2=O)c2ccccc21 [Compound 090]
< 100	< 100	–	–	C=CC(=O)N1CCC(N2Cc3cnc(Nc4ccc(N5CCN(C)CC5)c(Cl)c4)nc3N(C)C2=O)c2ccccc21 (centres unmarked) [Compound 079]
< 100	< 100	–	–	C=C(F)C(=O)N1CC[C@H](N2Cc3cnc(Nc4cnn(CCO)c4)nc3N(C3CCOC3)C2=O)c2ccccc21 (stereo partly drawn) [Compound 102, 3-((S)-1-(2-fluoroacryloyl)-1,2,3,4-tetrahydroquinolin-4-yl)-7-((1-(2-hydroxyethyl)-1 H-pyrazol-4-yl)amino)-1-(tetrahydrofuran-S-yl)-3,4-dihydropyrimido[4,5-d]pyrimidin-2(1H)-one]

GI50 ([1]; Table 6, read-out: L858R BaF3) [nM]	GI50 ([2]; Table 6) [nM]	GI50 ([1]; Table 5, read-out: L858R BaF3) [nM]	GI50 ([2]; Table 5) [nM]	Compound
< 100	< 100	–	–	CN1CCN(c2ccc(Nc3ncc4c(n3)N(C)C(=O)N([C@H]3CCN(C(=O)/C=C/CF)c5ccccc53)C4)cc2)CC1 [Compound 095]
< 100	< 100	–	–	C=CC(=O)N1CCC(N2Cc3cnc(Nc4cccc(OC(F)F)c4)nc3N(C)C2=O)c2ccccc21 (centres unmarked) [Compound 081]
< 100	< 100	–	–	C=CC(=O)N1CC[C@H](N2Cc3cnc(Nc4ccc5c(c4)CCN(C)C5)nc3N(CCO)C2=O)c2cccc(C)c21 [Compound 154, 1-(2-hydroxyethyl)-7-[(2-methyl-3,4-dihydro-1 H-isoquinolin-6-yl)amino]-S-[(4S)-8-methyl-1-prop-2-enoyl-3,4-dihydro-2H-quinolin-4-yl]-4H-pyrimido[4,5-d]pyrimidin-2-one]
≥ 2500	≥ 2500	–	–	C=CC(=O)N1CCC(N2Cc3nnc(Nc4ccc(N5CCN(C)CC5)cn4)cc3N(C)C2=O)c2ccccc21 (centres unmarked) [Compound 105]
≥ 2500	≥ 2500	–	–	C=CC(=O)N1Cc2ccccc2C(N2Cc3cnc(Nc4ccc(N5CCN(C)CC5)cc4)nc3N(C)C2=O)C1 (centres unmarked) [Compound 060, 3-(2-acryloyl-1,2,3,4-tetrahydroisoquinolin-4-yl)-1-methyl-7-((4-(4-methylpiperazin-1-yl)phenyl)amino)-3,4-dihydropyrimido[4,5-d]pyrimidin-2(1H)-one]
< 100	< 100	–	–	C=CC(=O)N1CCC(N2Cc3cnc(Nc4ccc(N5CCN(C)CC5)nc4)nc3N(C)C2=O)c2ccccc21 (centres unmarked) [Compound 056]
< 100	< 100	–	–	C=CC(=O)N1CCC(N2Cc3cnc(Nc4ccc(N(C)C)cc4)nc3N(C)C2=O)c2ccccc21 (centres unmarked) [Compound 074]
–	–	100 to 500	500 to 2500	C=CC(=O)Nc1c(F)cccc1CN1Cc2cnc(Nc3ccc(N4CCN(C)CC4)cc3)nc2N(C)C1=O [Compound 019]
≥ 2500	≥ 2500	–	–	CN1C(=O)N([C@H]2CCN(C(=O)CC#N)c3ccccc32)Cc2cnc(Nc3cnn(CCO)c3)nc21 [Compound 104]
< 100	< 100	–	–	C=CC(=O)N1CCC(N2Cc3cnc(Nc4ccc(N5CCN(C)CC5)cc4)nc3N(C3CCOC3)C2=O)c2ccccc21 (centres unmarked) [Compound 058]
< 100	< 100	–	–	C=CC(=O)N1CCC(N2Cc3cnc(Nc4cnn(CCO)c4)nc3N(C)C2=O)c2ccccc21 (centres unmarked) [Compound 063]
< 100	< 100	–	–	C=CC(=O)N1CCC(N2Cc3cnc(Nc4cccc(N5CCN(C)CC5)c4)nc3N(C)C2=O)c2ccccc21 (centres unmarked) [Compound 073]
< 100	< 100	–	–	C=C(F)C(=O)N1CCC(N2Cc3cnc(Nc4ccc(N5CCN(C)CC5)cc4)nc3N(C)C2=O)c2ccccc21 (centres unmarked) [Compound 064]
< 100	< 100	–	–	C=C(F)C(=O)N1CC[C@H](N2Cc3cnc(Nc4ccc5c(c4)CCN(C)C5)nc3N(C)C2=O)c2ccccc21 [Compound 098]
< 100	< 100	–	–	C=CC(=O)N1CCC(N2Cc3cnc(Nc4ccc(N5CCN(C)CC5)cc4Cl)nc3N(C)C2=O)c2ccccc21 (centres unmarked) [Compound 077]
500 to 2500	≥ 2500	–	–	C=C(F)C(=O)N1CC(F)(F)C(N2Cc3cnc(Nc4cnn(CCO)c4)nc3N(C)C2=O)c2ccccc21 (centres unmarked) [Compound 108, 3-[3,3-difluoro-1-(2-fluoroprop-2-enoyl)-2,4-dihydroquinolin-4-yl]-7-[[1-(2-hydroxyethyl)pyrazol-4-yl]amino]-1-methyl-4H-pyrimido[4,5-d]pyrimidin-2-one]
100 to 500	500 to 2500	–	–	C=CC(=O)N1CCC(N2Cc3cnc(Nc4ccc(N5CCN(C)CC5)cc4)nc3N(c3cccc(NC(C)=O)c3)C2=O)c2ccccc21 (centres unmarked) [Compound 051]
100 to 500	500 to 2500	–	–	C=C(F)C(=O)N1CC[C@H](N2Cc3cnc(Nc4cnn(CCO)c4)nc3N(c3ccccn3)C2=O)c2ccccc21 [Compound 111]

From US20240352021A1 (DANA-FARBER CANCER INSTITUTE, INC., priority 2021, published 2024)
